Patent US9809573B2, “Substituted pyridine derivatives useful as GSK-3 inhibitors” (priority 2013, dated 2017)
Read-outs that look alike come from different tables or passages of the source.

Columns and labels:
GSK3β = GSK3β (Homo sapiens, UniProt P49841); assay: GSK3β kinase assay (Caliper LabChip3000, fluoresceinated peptide substrate); assay type: biochemical
Procedure, shortened: (§1)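 IC50 values were derived by non-linear regression from eleven-point dose series. Each reaction was held at room temperature for 20 hours and quenched with EDTA.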

pTau = pTau assay (method not described); assay type: cell-based
GSK3α = GSK3α (Homo sapiens, UniProt P49840); assay: biochemical
Procedure, shortened: as §1

[1] = second value of the cell, 250 pM enzyme, 20 uM ATP, 20 hours at room temperature, read-out: GSK3β/α (nM): GSK3α IC50
[2] = first value of the cell, 250 pM enzyme, 20 uM ATP, 20 hours at room temperature, read-out: GSK3β/α (nM): GSK3β IC50

GSK3β, sequence (P49841 whole entry, species assumed): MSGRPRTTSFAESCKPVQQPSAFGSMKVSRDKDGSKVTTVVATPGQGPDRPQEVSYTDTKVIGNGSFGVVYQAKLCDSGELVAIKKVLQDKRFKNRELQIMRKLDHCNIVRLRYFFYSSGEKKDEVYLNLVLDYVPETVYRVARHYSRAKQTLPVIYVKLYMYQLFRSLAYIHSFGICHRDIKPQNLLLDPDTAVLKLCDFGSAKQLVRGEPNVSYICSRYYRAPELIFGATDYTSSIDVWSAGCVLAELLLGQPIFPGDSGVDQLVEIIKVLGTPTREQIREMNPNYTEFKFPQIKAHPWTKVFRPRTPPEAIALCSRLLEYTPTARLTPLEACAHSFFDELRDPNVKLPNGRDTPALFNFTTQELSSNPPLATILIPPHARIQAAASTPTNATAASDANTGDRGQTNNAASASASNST
GSK3α, sequence (P49840 whole entry, species assumed): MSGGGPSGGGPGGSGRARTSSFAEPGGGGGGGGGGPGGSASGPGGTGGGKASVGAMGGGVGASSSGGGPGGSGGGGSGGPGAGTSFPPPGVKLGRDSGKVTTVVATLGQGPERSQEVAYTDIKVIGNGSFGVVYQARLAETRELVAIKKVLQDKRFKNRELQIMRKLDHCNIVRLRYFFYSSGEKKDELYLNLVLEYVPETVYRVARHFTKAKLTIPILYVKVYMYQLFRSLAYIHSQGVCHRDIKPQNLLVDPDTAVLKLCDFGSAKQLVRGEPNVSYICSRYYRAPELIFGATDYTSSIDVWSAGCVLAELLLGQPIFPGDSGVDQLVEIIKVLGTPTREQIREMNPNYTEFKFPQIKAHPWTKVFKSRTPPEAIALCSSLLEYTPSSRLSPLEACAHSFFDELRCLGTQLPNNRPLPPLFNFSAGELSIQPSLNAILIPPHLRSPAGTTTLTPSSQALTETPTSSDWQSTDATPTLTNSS

Row | IC50 (GSK3β; [2]) [nM] | IC50 (pTau; read-out: pTau (nM)) [nM] | IC50 (GSK3α) [nM] | Compound | IC50 (GSK3β) [nM] | IC50 (pTau; read-out: pTau) [nM] | IC50 (GSK3α; [1]) [nM]
1 |  |  |  | CC(C)(C)C(=O)Nc1cc(C(=O)Nc2cnccc2N2CCC(F)(F)CC2)ccn1 [Example 208, N-(4-(4,4-difluoropiperidin-1-yl)pyridin-3-yl)-2-pivalamidoisonicotinamide] | 4.2 | 120 | 3.1
2 |  |  |  | CC(C)(C)C(=O)Nc1cc(C(=O)Nc2cncc(-c3cccc(F)c3F)c2)ccn1 [Example 209, N-(5-(2,3-difluorophenyl)pyridin-3-yl)-2-pivalamidoisonicotinamide] | 24 | 2100 | 14
3 | 3.6 |  |  | CCC1(c2cc(Cl)ncc2NC(=O)c2ccnc(NC(=O)C(C)(C)C)c2)OCCO1 [Example 210, N-(6-chloro-4-(2-ethyl-1,3-dioxolan-2-yl)pyridin-3-yl)-2-pivalamidoisonicotinamide] |  | 250 | 1.3
4 |  |  |  | CCOc1ccncc1NC(=O)c1ccnc(NC(=O)C2CCC2)c1 [Example 211, 2-(Cyclobutanecarboxamido)-N-(4-ethoxypyridin-3-yl)isonicotinamide] | 2.2 | 72 | 0.9
5 |  | 96 | 4.4 | O=C(Nc1cnccc1-c1ccccc1)c1ccnc(NC(=O)C2CCC2)c1 [Example 212, 2-(Cyclobutanecarboxamido)-N-(4-phenylpyridin-3-yl)isonicotinamide] | 4.3 |  | 
6 |  |  |  | O=C(Nc1cncc(-c2ccccc2)c1)c1ccnc(NC(=O)C2CC(F)(F)C2)c1 [Example 214, 2-(3,3-difluorocyclobutanecarboxamido)-N-(5-phenylpyridin-3-yl)isonicotinamide] | 4.1 | 490 | 2.9
7 |  |  |  | O=C(Nc1cnccc1-c1ccccc1)c1ccnc(NC(=O)C2CC(F)(F)C2)c1 [Example 216, 2-(3,3-Difluorocyclobutanecarboxamido)-N-(4-phenylpyridin-3-yl)isonicotinamide] | 1.9 | 120 | 3.4
8 |  |  |  | CC1(C)CC(C(=O)Nc2cc(C(=O)Nc3cnccc3-c3ccccc3)ccn2)C1 [Example 217, 2-(3,3-Dimethylcyclobutanecarboxamido)-N-(4-phenylpyridin-3-yl)isonicotinamide] | 1.7 | 170 | 3.2
9 | 17 |  |  | O=C(Nc1cnccc1-c1ccccc1)c1ccnc(NC(=O)[C@H]2C[C@H](O)C2)c1 [Example 219, 2-((1,3-Trans)-3-hydroxycyclobutanecarboxamido)-N-(4-phenylpyridin-3-yl)isonicotinamide] |  | 450 | 6.4
10 |  |  |  | CCOc1ccncc1NC(=O)c1ccnc(NC(=O)C2CCCC2)c1 [Example 226, 2-(Cyclopentanecarboxamido)-N-(4-ethoxypyridin-3-yl)isonicotinamide] | 0.62 | 31 | 0.41
11 |  | 47 | 1.4 | O=C(Nc1cnccc1-c1ccccc1)c1ccnc(NC(=O)C2CCCC2)c1 [Example 227, 2-(Cyclopentanecarboxamido)-N-(4-phenylpyridin-3-yl)isonicotinamide] | 1.6 |  | 
12 | 1.6 |  |  | O=C(Nc1cncc2ccccc12)c1ccnc(NC(=O)C2CCCC2)c1 [Example 228, 2-(Cyclopentanecarboxamido)-N-(isoquinolin-4-yl)isonicotinamide] |  | 130 | 1.1
13 |  |  |  | O=C(Nc1cnccc1-c1ccc(Cl)cc1)c1ccnc(NC(=O)C2CCC(F)(F)C2)c1 (stereo not drawn) [Example 231, N-(4-(4-chlorophenyl)pyridin-3-yl)-2-(3,3-difluorocyclopentanecarboxamido)isonicotinamide] | 0.46 | 30 | 0.9
14 |  |  |  | O=C(Nc1cncc(-c2ccccc2)c1)c1ccnc(NC(=O)C2CCCC2)c1 [Example 232, 2-(cyclopentanecarboxamido)-N-(5-phenylpyridin-3-yl)isonicotinamide] | 1.2 | 330 | 0.51
15 | 1 |  |  | O=C(Nc1cncc(-c2ccccc2)c1)c1ccnc(NC(=O)C2CCC(F)(F)C2)c1 (stereo not drawn) [Example 233, 2-(3,3-difluorocyclopentanecarboxamido)-N-(5-phenylpyridin-3-yl)isonicotinamide] |  | 340 | 0.33
16 |  |  |  | O=C(Nc1cncc(-c2ccccc2F)c1)c1ccnc(NC(=O)C2CCC(F)(F)C2)c1 (stereo not drawn) [Example 234, 2-(3,3-difluorocyclopentanecarboxamido)-N-(5-(2-fluorophenyl)pyridin-3-yl)isonicotinamide] | 1.4 | 160 | 0.9
17 |  | 130 | 0.6 | O=C(Nc1cncc(-c2cccc(F)c2F)c1)c1ccnc(NC(=O)C2CCC(F)(F)C2)c1 (stereo not drawn) [Example 235, 2-(3,3-difluorocyclopentanecarboxamido)-N-(5-(2,3-difluorophenyl)pyridin-3-yl)isonicotinamide] | 1.4 |  | 
18 | 4.3 |  |  | O=C(Nc1cncc(-c2cc(F)ccc2F)c1)c1ccnc(NC(=O)C2CCC(F)(F)C2)c1 (stereo not drawn) [Example 236, 2-(3,3-difluorocyclopentanecarboxamido)-N-(5-(2,5-difluorophenyl)pyridin-3-yl)isonicotinamide] |  | 180 | 2.1
19 |  |  |  | O=C(Nc1cncc(-c2ccccc2Cl)c1)c1ccnc(NC(=O)C2CCC(F)(F)C2)c1 (stereo not drawn) [Example 237, N-(5-(2-chlorophenyl)pyridin-3-yl)-2-(3,3-difluorocyclopentanecarboxamido)isonicotinamide] | 4.1 | 94 | 0.78
20 | 0.11 |  |  | CCC1(c2cc(Cl)ncc2NC(=O)c2ccnc(NC(=O)C3CCC(F)(F)C3)c2)OCCO1 (stereo not drawn) [Example 238, N-(6-chloro-4-(2-ethyl-1,3-dioxolan-2-yl)pyridin-3-yl)-2-(3,3-difluorocyclopentanecarboxamido)isonicotinamide] |  | 8.3 | 0.07
